These results are taken from ChEMBL document CHEMBL1944605, “Amides of xanthurenic acid as zinc-dependent inhibitors of Lp-PLA(2)” (Bioorg Med Chem Lett, 2012).

Test [1] has as its target T1, Platelet-activating factor acetylhydrolase (Homo sapiens, UniProt Q13093).
T1 sequence (Q13093 whole entry): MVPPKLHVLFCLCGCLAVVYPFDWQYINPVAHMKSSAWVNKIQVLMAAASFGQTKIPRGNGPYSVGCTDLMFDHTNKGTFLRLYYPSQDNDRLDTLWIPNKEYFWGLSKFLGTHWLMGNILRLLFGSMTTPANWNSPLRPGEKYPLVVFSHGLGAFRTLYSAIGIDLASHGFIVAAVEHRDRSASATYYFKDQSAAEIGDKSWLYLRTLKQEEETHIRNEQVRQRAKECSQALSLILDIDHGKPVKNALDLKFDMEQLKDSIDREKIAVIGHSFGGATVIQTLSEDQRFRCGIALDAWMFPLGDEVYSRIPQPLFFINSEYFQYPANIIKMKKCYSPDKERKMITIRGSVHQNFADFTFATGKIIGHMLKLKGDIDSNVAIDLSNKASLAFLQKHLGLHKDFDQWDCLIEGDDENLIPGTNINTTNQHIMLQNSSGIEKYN
Briefly: Inhibition of human plasma lipoprotein-associated phospholipase A2 using 2-thio-PAF as substrate preincubated for 20 mins measured 1 hr post substrate addition by spectrophotometric analysis.

Test [2] addresses T1, Platelet-activating factor acetylhydrolase. Briefly: Inhibition of human plasma lipoprotein-associated phospholipase A2 using 2-thio-PAF as substrate preincubated for 20 mins measured 1 hr post substrate addition by spectrophotometric analysis.

SMILES strings stand for the structures.

As to `O=C(Nc1ccccc1)c1ccc2cccc(O)c2n1`, the IC50 in test [1] and in test [2] was above 100 µM each time.
With `Oc1cccc2cccnc12` [OXYQUINOLINE], the 50% inhibitory concentration (IC50) in test [1] and in test [2] was above 100 µM throughout.
For the molecule `O=C(O)c1cc(O)c2cccc(O)c2n1` [XANTHURENATE], the concentration for half-maximal inhibition (IC50) in test [1] and in test [2] was above 100 µM throughout.

Broadly, the IC50 is the concentration that inhibits the measured activity by half. The low end stands for greater potency in that assay, the high end for weaker potency in that assay.
